Patent publication US8877163B2, “Cycloalkyl triamine pentacarboxylate as ligands for paramagnetic metal complexes” (Kaohsiung Medical University, priority 2006, dated 2014)

Tests used:
Type in all cases: physicochemical
[1] = Stability constants of the gadolinium complex by potentiometric titration (BEST program)
Text: Presently, there are two ways for calculating the thermodynamic stability constant of a metal complex by the potentiometric titration. […] The second method is suitable for the metal complex whose disassociation rate is less than 25% at low pH (such as pH 2). Take the metal complex of the present invention for instance, since it is not able to form a complex with the ligand at a pH value around 2, the thermodynamic stability constant thereof must be calculated by the previous method. The equation for the thermodynamic stability constant is defined as follows: [formula] where M represents the metal ion, L represents the ligand, and ML represents the metal complex. […] The thermodynamic stability constants for the metal complexes with CB-TTDA are determined from the titration data with the FORTRAN computer program BEST as shown in Table 2 with the reported thermodynamic stability constants of TTDA and DTPA, which are respectively reported by Y M. Wang et al., Inorganic Chemistry, vol. 44, page 382, 2005 and by P. Caravan et al., Inorganic Chemistry, vol. 44, page 2170, 2001. The conditional stability constant (Kcond) specifies the degree of metal chelation at a given pH and is defined as follows: […] [formula] where LT is the total concentration of the uncomplexed ligand, which is defined by the following equation: […]

[2] = Kinetic stability of the gadolinium complex toward zinc (II) transmetallation (relaxation rate ratio); conditions: incubation with zinc (II) for three days; phosphate buffer pH 7.4, 2.5 mM ZnCl2, 2.5 mM complex; 20 MHz, 37.0 ± 0.1° C.
Text: Among Zn^2+, Ca^2+, Cu^2+ and other metal ions, the zinc (II) combines a rather high concentration with high affinity toward poly(amino carboxylate) and may result in the gadolinium complex dissociation in vivo. […] The reciprocal of the longitudinal relaxation time is the water proton paramagnetic longitudinal relaxation rate, R1^P(t), where the ration of R1^P(t)|R1^P(0) represents the stability of the gadolinium complex for Zn^2+. […] Based on the mentioned principle, the kinetic stability of the gadolinium complex for zinc (II) could be measured. […] Laurent et al, Invest. Radiol., vol. 36, page 155, 2001.

[3] = Relaxivity r1 by 20 MHz relaxometer; conditions: 37.0 ± 0.1° C., pH 7.4 ± 0.1
Text: Mainly, the relaxivity of paramagnetic metal complex is affected by two factors, the inner-sphere and the outer-sphere relaxivities. Due to the existence of inner water molecules of the ligand of the present invention, the relaxivity thereof is mainly affected by the change of the inner-sphere relaxivity rather than the outer-sphere relaxivity (the outer-sphere relaxivity is considered similar to other ligands). The relaxivity of [Gd(CB-TTDA)]^2− is higher than those of [Gd(TTDA)]^2− (Y. M. Wang et al., Inorganic Chemistry, vol. 44, page 382, 2005) and [Gd(DTPA)]^2− (P. Caravan et al., Inorganic Chemistry, vol. 44, page 2170, 2001).

- calculated conditional stability constant of the gadolinium complex [1]: 15.83
- log KML [GdL]/[Gd][L] (thermodynamic stability constant) [1]: 20.28
- R1^p (t = 3days)/R1^p (t = 0 days) [2]: 47.4%
- relaxivity r1 [3]: 4.12 ± 0.05 mM⁻¹ s⁻¹
SMILES: O=C([O-])CN(CCN(CC(=O)[O-])CC1(CN(CC(=O)[O-])CC(=O)[O-])CCC1)CC(=O)[O-].[Gd+3] [[Gd(CB-TTDA)]^2−]
